Measurements taken from ChEMBL document CHEMBL1127102, “Structure-activity relationships of 2,3-benzodiazepine compounds with glutamate antagonistic action” (Bioorg Med Chem Lett, 1993).

Legend:
[1] = tested on: Mus musculus; assay: Tested in vivo for anticonvulsant activity using MES, MMS and IS relative potency compared to GYKI 52466; type: functional
[2] = species on record: Rattus norvegicus; assay: Tested in vitro for the relative potency against neuronal responses mediated by the non-NMDA type glutamate receptor compared to GYKI 52466; type: functional
[3] = tested on: Mus musculus; assay: Tested in vivo for the anticonvulsant activity by MMS test. 95% confidence limits are in brackets; type: functional
[4] = tested on: Mus musculus; assay: Tested in vivo for the anticonvulsant activity by MES test. 95% confidence limits are in brackets; type: functional
[5] = species on record: Rattus norvegicus; assay: Tested in vitro for the anticonvulsant activity (IC50 value was determined after 30 min perfusion application by MES test); type: functional, organism-based; details: 0.5 h
[6] = tested on: Mus musculus; assay: Tested in vivo for the anticonvulsant activity by IS test.; type: functional
[7] = species on record: Mus musculus; assay: Tested in vitro for the oral anticonvulsant activity by MES test; type: functional, organism-based
[8] = tested on: Mus musculus; assay: Tested in vivo for the oral anticonvulsant activity by MES test; type: functional

CC1Cc2cc3c(cc2C(c2ccc(N)cc2)=NN1C(=O)CN(C)C)OCO3 (centres undefined)
Relative potency [1]: 0

CC1Cc2cc3c(cc2C(c2ccc(N)cc2)=NN1C(=O)c1ccccc1)OCO3 (centres undefined)
Relative potency [1]: 0

CC1Cc2cc3c(cc2C(c2ccc(N)cc2)=NN1C(=O)C(F)(F)F)OCO3 (centres undefined)
Relative potency [1]: 0

CC1Cc2cc3c(cc2C(c2ccc(N)cc2)=NN1C(=O)Cc1ccccc1)OCO3 (centres undefined)
Relative potency [1]: 0

CC1Cc2cc3c(cc2C(c2ccc(N)cc2)=NN1C(=O)CC#N)OCO3 (centres undefined)
Relative potency [1]: 0.21

CNCC(=O)N1N=C(c2ccc(N)cc2)c2cc3c(cc2CC1C)OCO3 (centres undefined)
Relative potency [2]: 0.02
Relative potency [1]: 0

CC1Cc2cc3c(cc2C(c2ccc(N)cc2)=NN1C(=O)C(C)(C)C)OCO3 (centres undefined)
Relative potency [1]: 0

CC(N)C(=O)N1N=C(c2ccc(N)cc2)c2cc3c(cc2CC1C)OCO3 (centres undefined)
Relative potency [2]: 0
Relative potency [1]: 0.08

CCCCC(=O)N1N=C(c2ccc(N)cc2)c2cc3c(cc2CC1C)OCO3 (centres undefined)
Relative potency [2]: 0.22
Relative potency [1]: 0

CC1Cc2cc3c(cc2C(c2ccc(N)cc2)=NN1C(=O)Nc1ccccc1)OCO3 (centres undefined)
Relative potency [1]: 0.13

CC1Cc2cc3c(cc2C(c2ccc(N)cc2)=NN1C(=O)C1CC1)OCO3 (centres undefined)
Relative potency [2]: 1.48
Relative potency [1]: 1.66

COCC(=O)N1N=C(c2ccc(N)cc2)c2cc3c(cc2CC1C)OCO3 (centres undefined)
Relative potency [1]: 1.02

CC1Cc2cc3c(cc2C(c2ccc(N)cc2)=NN1C(=O)CN)OCO3 (centres undefined)
Relative potency [2]: 0.1
Relative potency [1]: 0

CCC(=O)N1N=C(c2ccc(N)cc2)c2cc3c(cc2CC1C)OCO3 (centres undefined)
Relative potency [2]: 1.55
Relative potency [1]: 2.55

CC1Cc2cc3c(cc2C(c2ccc(N)cc2)=NN1C=O)OCO3 (centres undefined)
Relative potency [2]: 0.44
Relative potency [1]: 1.72

CCCCNC(=O)N1N=C(c2ccc(N)cc2)c2cc3c(cc2CC1C)OCO3 (centres undefined)
Relative potency [2]: 0.65
Relative potency [1]: 0.35

CC1=NN=C(c2ccc(N)cc2)c2cc3c(cc2C1)OCO3 [GYKI-52466]
ED50 [3]: 107 mg/kg
ED50 [4]: 30.6 mg/kg
IC50 [5]: 29.5 µM
ED50 [6]: 45.1 mg/kg

CNC(=O)N1N=C(c2ccc(N)cc2)c2cc3c(cc2CC1C)OCO3 (centres undefined) [GYKI-53655]
Relative potency [2]: 2.46
Relative potency [1]: 4.39
IC50 [7]: 12 µM
ED50 [8]: 8.4 mg/kg

CC(=O)N1N=C(c2ccc(N)cc2)c2cc3c(cc2C[C@H]1C)OCO3 [TALAMPANEL]
Relative potency [2]: 1.12
Relative potency [1]: 2.74
